Key:
Assay type in all cases: functional, cell-based
[1] = target: T1, ATP-dependent translocase ABCB1 (Homo sapiens, UniProt P08183); assay: TP_TRANSPORTER: increase in Rhodamine 123 intracellular accumulation in human KB-V1 cells
[2] = target: T1, ATP-dependent translocase ABCB1; assay: TP_TRANSPORTER: increase in Calcein-AM intracellular accumulation in human KB-V1 cells
[3] = target: T1, ATP-dependent translocase ABCB1; assay: TP_TRANSPORTER: increase in bodipy-FL-vinblastine intracellular accumulation in human KB-V1 cells

Measured: Activity

T1 sequence (P08183 whole entry): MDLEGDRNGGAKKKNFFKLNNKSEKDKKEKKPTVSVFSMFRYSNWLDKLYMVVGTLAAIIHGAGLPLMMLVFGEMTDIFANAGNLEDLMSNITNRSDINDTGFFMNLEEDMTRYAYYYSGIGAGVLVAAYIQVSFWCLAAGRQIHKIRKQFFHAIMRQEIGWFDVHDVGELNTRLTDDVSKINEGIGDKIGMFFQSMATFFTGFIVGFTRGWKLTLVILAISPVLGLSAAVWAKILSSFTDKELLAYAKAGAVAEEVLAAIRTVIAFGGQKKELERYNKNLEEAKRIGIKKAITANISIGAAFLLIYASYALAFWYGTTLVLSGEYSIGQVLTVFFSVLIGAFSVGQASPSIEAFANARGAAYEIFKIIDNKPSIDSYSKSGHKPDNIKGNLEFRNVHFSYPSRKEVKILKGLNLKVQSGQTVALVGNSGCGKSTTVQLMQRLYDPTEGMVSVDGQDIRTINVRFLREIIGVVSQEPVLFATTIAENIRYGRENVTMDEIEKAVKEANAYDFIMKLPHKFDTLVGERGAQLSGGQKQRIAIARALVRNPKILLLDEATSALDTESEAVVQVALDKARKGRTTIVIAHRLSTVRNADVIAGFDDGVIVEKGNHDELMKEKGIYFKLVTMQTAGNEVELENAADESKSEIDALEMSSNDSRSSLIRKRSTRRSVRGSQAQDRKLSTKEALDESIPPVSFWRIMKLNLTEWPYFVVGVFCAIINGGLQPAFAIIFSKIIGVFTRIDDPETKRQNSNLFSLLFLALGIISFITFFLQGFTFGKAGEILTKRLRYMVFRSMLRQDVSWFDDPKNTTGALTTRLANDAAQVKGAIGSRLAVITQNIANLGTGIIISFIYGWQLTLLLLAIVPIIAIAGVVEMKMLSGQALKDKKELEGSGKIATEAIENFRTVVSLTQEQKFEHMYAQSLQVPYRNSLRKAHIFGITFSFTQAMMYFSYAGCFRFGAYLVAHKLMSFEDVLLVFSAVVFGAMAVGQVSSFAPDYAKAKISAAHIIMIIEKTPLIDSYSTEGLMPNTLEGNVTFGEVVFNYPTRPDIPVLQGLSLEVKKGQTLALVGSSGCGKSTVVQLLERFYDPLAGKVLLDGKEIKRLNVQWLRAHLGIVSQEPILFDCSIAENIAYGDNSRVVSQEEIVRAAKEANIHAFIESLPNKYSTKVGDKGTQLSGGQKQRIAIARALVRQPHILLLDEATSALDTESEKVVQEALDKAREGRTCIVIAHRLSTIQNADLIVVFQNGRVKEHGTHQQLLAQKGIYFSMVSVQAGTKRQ

COc1cc(/C=C/C(=O)CC(=O)/C=C/c2ccc(O)c(OC)c2)ccc1O [CURCUMIN]
inhibitor [+]: [1] | [2] | [3]

Source: ChEMBL document CHEMBL2074355, “Biochemical mechanism of modulation of human P-glycoprotein (ABCB1) by curcumin I, II, and III purified from Turmeric powder” (Biochem Pharmacol, 2004)
